Tested on: Mouse B16 melanoma cells
Experiment: Melanin production inhibition test
Type: cell-based
Conditions: for Minimum concentration (%): minimum concentration at which an inhibitory effect on melanin production was significantly exhibited in melanoma B16 cells; for minimal effective concentration: 72 h, mouse B16 melanoma cells, three days after addition, minimum non-cytotoxic final concentration at which ratio of melanin amount was 80% or less, read-out: Inhibitory effect on melanin production
Description: A test for melanin production inhibition by the compounds of the formula (1) was conducted. The test method is as follows.
Melanin Production Inhibition Test
(1) Inoculation of Cells and Addition of Test Substances
Mouse B16 melanoma cells were inoculated in a six well plate at 100,000 cells/well. The next day, test substance solutions (solvent: DMSO) were added.
(2) Cell Proliferation Test
Three days after the addition of the test substance solution, the medium was removed by aspiration. Then 1 ml of EMEM medium containing 10% Alamar Blue solution was added, and a reaction was allowed to proceed at 37° C. After 30 minutes, 100 μL of the reaction mixture was transferred to a 96 well plate and fluorescence was measured at an excitation wavelength of 544 nm and a measurement wavelength of 590 nm. Using the value thus measured as a relative value of cell count, a ratio of the cell count (% cell count) of the test substance-added group to the test substance-absent group (group in which only the solvent was added) was calculated. The higher the % cell count, the lower the cytotoxicity. It was determined that a compound having the % cell count of 80% or more was non-cytotoxic, and that a compound having the % cell count of less than 80% was cytotoxic.
(3) Quantification of Melanin
The cells after the cell proliferation test were washed with PBS three times, and then lysed by addition of 200 μL of 1M NaOH to measure an absorbance at 475 nm. Using the value thus measured as a: value of the melanin amount, a ratio of the melanin amount (%) of the test substance-added group to the test substance-absent group (group in which only the solvent was added) was calculated. The lower the ratio of the melanin amount, the higher the melanin production-inhibitory effect. […] The inhibitory effect on melanin production was evaluated according to the following criteria.
⊚: the minimum concentration for inhibition of melanin production was 1 ppm or less.
◯: the minimum concentration for inhibition of melanin production was more than 1 ppm and 10 ppm or less.

| Structure (SMILES) | Minimum concentration (%) | minimal effective concentration [µg/mL] |
| --- | --- | --- |
| OC[C@H]1O[C@@H](Oc2ccc(O)cc2)[C@H](O)[C@@H](O)[C@@H]1O [Arbutin, 4-hydroxyphenyl-β-D-glucopyranoside, reference compound] | 5 × 10^−4% |  |
| Cc1cc(C)nc(-n2nc(C)cc2N)n1 [Compound 1] |  | ≤ 1 |
| Cc1cc(N2CCOCC2)nc(-n2nc(C)cc2C)n1 [Compound 2] |  | ≤ 1 |
| Cc1cc(N)n(-c2ncccn2)n1 [Compound 3] |  | 1 to 10 |
| Cc1cc(C)n(-c2ncccn2)n1 [Compound 4, 1-(pyrimidin-2-yl)-3,5-dimethylpyrazole] |  | ≤ 1 |
| Cc1cc(S)nc(-n2nc(C)cc2C)n1 [Compound 6] |  | ≤ 1 |
| CNc1cc(C)nc(-n2nc(C)cc2C)n1 [Compound 7] | 3 × 10^−6% | ≤ 1 |
| CCc1c(C)nn(-c2nc(C)cc(C)n2)c1O [Compound 8] |  | ≤ 1 |
| Cc1cc(C)nc(-n2nc(C)cc2O)n1 [Compound 11] |  | 1 to 10 |
| Cc1cc(C)nc(-n2cccn2)n1 [Compound 12, 2-(pyrazol-1-yl)-4,6-dimethylpyrimidine] |  | 1 to 10 |
| COc1cc(OC)nc(-n2nc(C)cc2C)n1 [Compound 13] |  | ≤ 1 |
| Cc1cc(N(C)C)nc(-n2nc(C)cc2C)n1 [Compound 14] | 3 × 10^−6% | ≤ 1 |
| Cc1cc(C)nc(-n2nccc2C)n1 [Compound 17] |  | ≤ 1 |
| Cc1cc(C)nc(-n2ccc(C)n2)n1 [Compound 18] |  | ≤ 1 |
| Cc1cc(N2CCOCC2)nc(-n2nc(C)c(C)c2C)n1 [Compound 20] |  | ≤ 1 |
| CCc1cnc(-n2nc(C)cc2C)nc1 [Compound 21, 1-(5-ethylpyrimidin-2-yl)-3,5-dimethylpyrazole] |  | ≤ 1 |
| Cc1ccnc(-n2nc(C)cc2C)n1 [Compound 22, 1-(4-methylpyrimidin-2-yl)-3,5-dimethylpyrazole] |  | ≤ 1 |
| Cc1cnn(-c2nc(C)cc(C)n2)c1 [Compound 23] |  | ≤ 1 |
| Cc1cc(C)nc(-n2ncc3c2/C(=C/c2ccc(Cl)cc2)CC3)n1 [Compound 30] |  | ≤ 1 |
| Cc1cc(C)n(-c2ccccc2)n1 [Compound 33, 1-phenyl-3,5-dimethylpyrazole] |  | 1 to 10 |
| Cc1cc(C)n(-c2ccc(C)c(C)c2)n1 [Compound 34] |  | ≤ 1 |
| Cc1cc(C)cc(-n2nc(C)cc2C)c1 [Compound 35] |  | ≤ 1 |
| Cc1cccc(-n2nc(C)cc2C)c1 [Compound 36] |  | ≤ 1 |
| Cc1ccnc(-n2nc(C)cc2C)c1 [Compound 40, 1-(4-methylpyridin-2-yl)-3,5-dimethylpyrazole] |  | 1 to 10 |
| Cc1cc(C)nc(-n2ccnc2C)n1 [Compound 41] |  | ≤ 1 |
| Cc1cn(-c2nc(C)cc(C)n2)cn1 [Compound 42] |  | ≤ 1 |
| Cc1cc(C)nc(N2CC(C)CC(C)C2)n1 (centres unmarked) [Compound 45, N-(4,6-dimethylpyrimidin-2-yl)-3,5-dimethylpiperidine] |  | 1 to 10 |

— patent US8563552B2, “Whitening agent and skin external preparation” (Shiseido Company Ltd., priority 2008, dated 2013)
